What was measured:
[1] = Conversion of JS-11 to SN-38 by ROS (emission change); format: physicochemical; settings: 37° C.; reacted only with H2O2
Description: To confirm whether JS-11 is converted to SN-38 by ROS, the change in the emission spike of JS-11 using H2O2 at 37° C. was measured. Since JS-11 has no electron push-pull capability, there is no emission in aqueous media but decomposes upon exposure to H2O2 and fluoresces at 560 nm.

BxPC-3 pancreatic tumors = test: Therapeutic efficacy in pancreatic cancer xenograft model mice; format: in vivo; settings: 20 mg/kg via tail vein on days 34, 37, 40, 43; FIG. 25
Description: BALB/c nude mice (females and males, 4 weeks and 5 weeks old) were commercially obtained from Nara Co., Ltd., Gyeonggi-do, Korea. BxPC-3 cells (5×10^6 cells, suspended in 100 μl mixture of RPMI medium and Matrigel, 1:1) were injected subcutaneously behind the flank of each mouse. All animal experiments were performed according to the guidelines of the Korea Kyunghee University Animal Care Committee (IACUC).
Tumor-bearing mice were randomly divided into 5 groups (n=5 per group). (1) PBS only, (2) pSiNP only, (3) JS-11, (4) pSiNP (JS-11), and (5) ROSG-pSiNP (JS-11) were administered by intravenous injection (i.v.) 4 times at intervals of 3 days at a dose of 20 mg/kg, 100 μl each.
The mouse tumor size was recorded every 3 days until the end of the experiment, and the tumor volume was calculated by the formula V=[(tumor length)×(tumor width)^2]/[…]. At the end of the experiment (day 22), the body of each mouse was photographed with a digital camera, and body weight was measured.
Finally, the cancer treatment efficacy of ROSG-pSiNP (JS-11) was evaluated in pancreatic cancer xenograft model mice. To induce pancreatic tumors, BxPC-3 cells were injected subcutaneously behind the flank of mice on day 0. […] Changes in tumor volume and body weight in mice were monitored, and toxic effects were investigated for practical applications.

BxPC-3 cell lines = test: In vitro cytotoxicity of nano-formulations; format: cell-based; settings: human
Description: Next, the cytotoxicity of pSiNP, JS-11, pSiNPs (JS-11), and ROSG-pSiNP (JS-11) was evaluated for BxPC-3 cell lines. The throughput of pSiNP (JS-11) and ROSG-pSiNP (JS-11) was corrected with the concentration of JS-11 (0 to 10 μM).
The cytotoxicity of two nano-formulations, pSiNP-NCS (without JS-11 and TEPITC-modifying) and pSiNP-NCS/CGKRK (SEQ ID NO: 1) (without JS-11 and CGKRK-modifying), was further analyzed to confirm the synergistic cytotoxic effect of JS-11 and TEPITC.

BxPC-3 cells [2] = test: PEITC/TEPITC-induced intracellular ROS generation (DCFDA/DCF kit, CLSM); format: cell-based, Human; settings: 20 μM, 2 hours; for fluorescence intensity-based enhancement factor (DCF, ROS level) compared with before chemical treatment: FIG. 4 (BxPC-3)
Description: The intracellular ROS levels of cells were analyzed using the 2',7'-dichlorofluorosine diacetate (DCFDA/H2DCFDA) cell ROS detection analysis kit. BxPC-3, AsPC-1, and PANC-1 cells (1×10^5 cells/mL, 100 μl/well) were inoculated into 96-well black plates and incubated at 37° C. for 24 hours. The cells were then treated with PEITC or […] at 1.25, 2.5, 5, 10, and 20 μM, respectively, and then incubated at 37° C. for 2 hours. As a positive control group, a set treated with hydrogen peroxide (H2O2) was prepared. The cells were then treated with 20 μM DCFDA (100 μl) at 37° C. for 45 minutes. Excitation/emission wavelengths at 485/535 nm were measured with a microplate reader (Fluorostar Omega, BMG Labtech, Germany). Intracellular ROS generation was assessed by CLSM (LSM800, Carl Zeiss, Oberkochen, Germany) imaging using BxPC-3 cells. BxPC-3 cells (1×10^5 cells/mL, 2 mL) were inoculated into confocal plates. After 24 hours incubation, cells were treated with 20 μM PEITC and […] for 2 hours. The cells were then stained with 20 μM DCFDA (200 μL) at 37° C. for 45 minutes, washed 3 times with PBS, and stained with DAPI for 10 minutes. After washing 3 times, the cells were fixed with 4% paraformaldehyde for 20 minutes. The excitation and emission channels are: DAPI (405 nm, 400-520 nm band filter), ROS (488 nm, 400-585 nm band filter). Cells were contacted with ITC, and intracellular ROS generation was assessed. Human pancreatic cell lines BxPC-3, AsPC-1, and PANC-1 were treated with […], and ROS levels were measured using the DCFDA/DCF kit. When 2',7'-dichlorofluorescein diacetate (DCFDA) diffuses into cells, it is deacetylated to H2DCF by cellular esterase, and when H2DCF comes into contact with ROS, it is converted to green fluorescent DCF. Phenethyl isothiocyanate (PEITC) and H2O2 were used as positive control groups. Each chemical substance ([…], and H2O2, concentration=0 to 20 μM) were treated on the cell line and incubated for 2 hours.

[3] = system: nuclear factor erythroid 2-related factor 2 (Nrf2); test: Nrf2 expression in BxPC-3 cells by Western blot (TEPITC/PEITC); format: cell-based, Human; settings: for time of greatest increase in Nrf2 expression after incubation / expression of Nrf2: 20 μM; for expression of Nrf2: 0 to 4 hours
Description: Oxidative stress-related signaling pathways were analyzed to confirm the association between […] treatment and intracellular ROS upregulation. PEITC was used as a positive control group. PEITC is known to induce Nrf2 accumulation in human prostate cancer PC-3 cells and increase the expression of endogenous heme oxygenase-1 (HO-1) protein. According to FIG. 7A, BxPC-3 cells were treated with […] It is noteworthy that the expression of Nrf2 in the […] treatment group was maximum 30 minutes after incubation began but decreased from 1 hour later.

heme oxygenase-1 (HO-1) = test: HO-1 expression in BxPC-3 cells by Western blot; format: cell-based, Human; settings: 5 μM, 0 to 6 hours
Description: The expression level of HO-1, an antioxidant enzyme essential for cell protection against oxidative stress, was also analyzed. Cells were treated with […] (5 μM) and incubated for 0 to 6 hours. […] This is thought to be because Nrf2 is a transcription factor that regulates the expression of HO-1.

Nrf2 = Nrf2 immunofluorescence / nuclear translocation (CLSM); format: cell-based, Human; settings: 30 minutes, BxPC-3
Description: CLSM imaging was used to verify that […] induces nuclear translocation of cytoplasmic Nrf2. BxPC-3 cells were treated with […] (0 to 10 μM), incubated for 30 minutes, and visualized by treatment with Nrf2 antibody and DAPI.

BxPC-3 cells [4] = test: Cytotoxicity of isothiocyanates (CCK-8 assay); format: cell-based, Human; settings: 10 μM, 24 hours
Description: Next, the cytotoxicity of TEPITC was analyzed. BxPC-3 cells were treated with 0 to 10 μM of TEPITC or PEITC and incubated for 24 hours, and cytotoxicity and viability were analyzed by CCK-8 assay.

SMILES	conversion to SN-38 under pH 3 to 10, metal ions and biomolecules [1]	mean tumor volume (BxPC-3 pancreatic tumors) [mm^3]	cytotoxicity (BxPC-3 cell lines; 0.625 μM) [%]	cytotoxicity (BxPC-3 cell lines; 10 μM) [%]	fluorescence intensity-based enhancement factor (DCF, ROS level) compared with before chemical treatment (BxPC-3 cells [2]) [times]	time of greatest increase in Nrf2 expression after incubation [3] [min]	expression of Nrf2 [3]	expression level of intracellular HO-1 (heme oxygenase-1 (HO-1))	time of highest HO-1 expression (heme oxygenase-1 (HO-1))	intracellular ROS level (fluorescence analysis and CLSM images) (BxPC-3 cells [2]; BxPC-3)	Nrf2 immunofluorescence localisation (Nrf2; 2.5 μM)	Nrf2 immunofluorescence localisation (Nrf2; 5 μM)	Nrf2 immunofluorescence localisation (Nrf2; 10 μM)	cytotoxicity compared to the untreated group cells (BxPC-3 cells [4])	increase in Nrf2 level, concentration dependence ([3]; 0 to 20 μM)
CCc1c2c(nc3ccc(OC(=O)c4ccccc4Nc4cccc(C)c4C)cc13)-c1cc3c(c(=O)n1C2)COC(=O)[C@]3(O)CC [JS-11]	did not show the conversion to SN-38	183.1±40.8	21.60	42.4											
S=C=NCCc1ccccc1 [PEITC, Phenethyl isothiocyanate, reference compound]					3.67	30	significantly increased								
CCO[Si](CCCN=C=S)(OCC)OCC [TEPITC, 3-isothiocyanatopropyltriethoxysilane]					6.34	30	significantly increased	significantly increased	2 h and 4 h	upregulates the intracellular ROS level, and the effect was superior to PEITC	increase in Nrf2 expression in the cytoplasm	in the nucleus Nrf2 expression was observed	Nrf2 signal in the nucleus was weakened	up to 80%	concentration-dependent in the range of 2.5 to 10 μM
